# Patent US20230357856A1, “METHODS AND COMPOSITIONS FOR PROGNOSING GLIOBLASTOMA OR BREAST CANCER” (The Johns Hopkins University, priority 2020, published 2023)
# “Also recorded” adds a separate entry of the source.
# System: metastatic MDA-MB-231 breast cancer cells
# Experiment: Microfluidic Assay for Quantification of Cell Invasion (MAqCI), migration of breast cancer cells
# Assay type: cell-based
# Details: 5 µM, 13 hours post administration, MDA-MB-231 cells, compared to vincristine (VC); FIG. 24
compound,measurement,value
Fc1ccc([C@@H]2CCNC[C@H]2COc2ccc3c(c2)OCO3)cc1 [paroxetine],percentage of migratory cells in MAqCI,down to the levels of non-metastatic cells; also recorded: decreases the percent of migratory cells to the level of non-metastatic cells
